The source of these data is patent publication US9212182B2, “Bicyclic sulfonamide compounds as sodium channel inhibitors” (AMGEN INC., priority 2013, dated 2015).

The structures appear in SMILES notation. Where two headings read alike, the source gives them in different places.

The experiment deals with Nav 1.7 (Homo sapiens (Human), UniProt Q15858). As to the kind of experiment: in-vitro Nav 1.7 PX (IC50). The experiment is classed as cell-based.
The mark [1] stands for this setting: in-vitro Nav 1.7 PX data (PatchXpress).

Usually IC50 stands for the point on the concentration scale where inhibition reaches its midpoint. A high value points to a need for much substance.

Chain of Nav 1.7 (Q15858 whole entry): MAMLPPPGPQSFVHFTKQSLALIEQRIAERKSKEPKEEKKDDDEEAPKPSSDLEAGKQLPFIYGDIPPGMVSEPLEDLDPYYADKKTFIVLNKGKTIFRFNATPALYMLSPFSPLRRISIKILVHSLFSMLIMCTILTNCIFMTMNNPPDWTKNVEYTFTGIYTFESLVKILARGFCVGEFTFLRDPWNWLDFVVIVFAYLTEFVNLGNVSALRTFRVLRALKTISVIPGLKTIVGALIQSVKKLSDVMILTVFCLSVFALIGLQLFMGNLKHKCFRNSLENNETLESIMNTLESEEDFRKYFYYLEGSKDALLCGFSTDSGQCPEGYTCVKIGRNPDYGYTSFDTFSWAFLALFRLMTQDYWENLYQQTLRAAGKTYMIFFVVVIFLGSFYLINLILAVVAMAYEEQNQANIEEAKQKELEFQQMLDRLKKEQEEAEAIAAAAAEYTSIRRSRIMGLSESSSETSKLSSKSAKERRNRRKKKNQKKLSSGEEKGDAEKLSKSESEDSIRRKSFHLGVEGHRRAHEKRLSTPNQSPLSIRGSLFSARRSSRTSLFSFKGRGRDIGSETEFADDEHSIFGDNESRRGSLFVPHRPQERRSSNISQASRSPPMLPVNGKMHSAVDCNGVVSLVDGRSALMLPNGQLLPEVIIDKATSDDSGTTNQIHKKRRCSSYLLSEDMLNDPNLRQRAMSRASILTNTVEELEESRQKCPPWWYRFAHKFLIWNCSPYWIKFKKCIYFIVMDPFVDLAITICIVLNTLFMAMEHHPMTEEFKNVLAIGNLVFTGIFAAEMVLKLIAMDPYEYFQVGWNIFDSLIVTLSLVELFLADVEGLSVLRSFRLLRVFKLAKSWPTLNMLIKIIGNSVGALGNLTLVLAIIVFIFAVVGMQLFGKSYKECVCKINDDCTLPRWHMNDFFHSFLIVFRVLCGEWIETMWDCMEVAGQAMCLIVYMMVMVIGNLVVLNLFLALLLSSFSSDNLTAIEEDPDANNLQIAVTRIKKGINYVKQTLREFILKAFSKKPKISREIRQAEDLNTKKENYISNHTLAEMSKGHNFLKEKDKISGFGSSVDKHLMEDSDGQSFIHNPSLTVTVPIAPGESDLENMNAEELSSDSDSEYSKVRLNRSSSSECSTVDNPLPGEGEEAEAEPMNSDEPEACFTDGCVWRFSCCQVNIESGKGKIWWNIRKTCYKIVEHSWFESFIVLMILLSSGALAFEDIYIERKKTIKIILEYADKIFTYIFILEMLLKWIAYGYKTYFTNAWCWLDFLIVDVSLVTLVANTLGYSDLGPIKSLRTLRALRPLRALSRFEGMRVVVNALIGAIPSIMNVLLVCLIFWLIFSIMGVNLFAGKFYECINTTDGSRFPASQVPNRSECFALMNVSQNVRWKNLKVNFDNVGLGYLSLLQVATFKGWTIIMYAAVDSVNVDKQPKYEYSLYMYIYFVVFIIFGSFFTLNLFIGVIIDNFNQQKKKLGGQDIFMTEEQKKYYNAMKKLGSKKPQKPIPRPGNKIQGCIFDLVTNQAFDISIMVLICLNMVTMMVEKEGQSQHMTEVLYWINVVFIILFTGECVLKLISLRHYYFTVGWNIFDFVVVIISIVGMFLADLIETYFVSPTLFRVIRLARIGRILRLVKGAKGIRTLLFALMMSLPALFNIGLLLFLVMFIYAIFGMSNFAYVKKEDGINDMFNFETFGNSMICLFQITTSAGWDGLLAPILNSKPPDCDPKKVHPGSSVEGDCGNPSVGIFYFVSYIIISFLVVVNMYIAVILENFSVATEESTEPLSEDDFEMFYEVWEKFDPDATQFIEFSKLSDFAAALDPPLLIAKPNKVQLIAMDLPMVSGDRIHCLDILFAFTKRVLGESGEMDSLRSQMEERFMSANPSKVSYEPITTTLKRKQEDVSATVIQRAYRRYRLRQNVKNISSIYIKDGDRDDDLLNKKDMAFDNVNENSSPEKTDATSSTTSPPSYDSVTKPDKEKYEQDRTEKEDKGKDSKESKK

As to `COc1cc(-c2ccc(C(F)(F)F)cc2)c(F)cc1-n1c(=O)ccc2cc(S(=O)(=O)Nc3ncccn3)ccc21` [Example 797, 1-(2-fluoro-5-methoxy-4′-(trifluoromethyl)-4-biphenylyl)-2-oxo-N-2-pyrimidinyl-1,2-dihydro-6-quinolinesulfonamide], half-maximal inhibition (in-vitro Nav 1.7 PX data) (IC50) required 43 nM.

Turning to `COc1ccc(F)c(-c2cc(OC)c(-n3c(=O)ccc4cc(S(=O)(=O)Nc5ccon5)ccc43)cc2F)c1` [Example 732, 1-(2,2′-difluoro-5,5′-dimethoxy-4-biphenylyl)-N-3-isoxazolyl-2-oxo-1,2-dihydro-6-quinolinesulfonamide], half-maximal inhibition (in-vitro Nav 1.7 PX data) (IC50) was put at 56 nM.

`COc1ccc(-c2cccc(F)c2F)cc1-n1c(=O)ccc2cc(S(=O)(=O)Nc3ccon3)ccc21` [Example 848, 1-(2′,3′-difluoro-4-methoxy-3-biphenylyl)-N-3-isoxazolyl-2-oxo-1,2-dihydro-6-quinolinesulfonamide] yielded an IC50 (in-vitro Nav 1.7 PX data) of 118 nM.

For the molecule `COc1cc(-c2ccc(Cl)cc2)ccc1-n1c(=O)ccc2cc(S(=O)(=O)Nc3ncc(F)cn3)ccc21` [Example 764, 1-(4′-chloro-3-methoxy-4-biphenylyl)-N-(5-fluoro-2-pyrimidinyl)-2-oxo-1,2-dihydro-6-quinolinesulfonamide], the IC50 (in-vitro Nav 1.7 PX data) turned out to be 40 nM.

For the molecule `COc1cc(-c2cnc(OC)c(Cl)c2)ccc1-n1c(=O)ccc2cc(S(=O)(=O)Nc3ccon3)ccc21` [Example 814, 1-(4-(5-chloro-6-methoxy-3-pyridinyl)-2-methoxyphenyl)-N-3-isoxazolyl-2-oxo-1,2-dihydro-6-quinolinesulfonamide], under “in-vitro Nav 1.7 PX data”, the half-inhibitory concentration (IC50) was determined as 35 nM.

`COc1ccc(-c2cc(OC)c(-n3c(=O)ccc4cc(S(=O)(=O)Nc5ccon5)ccc43)cc2F)cc1F` [Example 705, 1-(2,3′-difluoro-4′,5-dimethoxy-4-biphenylyl)-N-3-isoxazolyl-2-oxo-1,2-dihydro-6-quinolinesulfonamide] gave an IC50 (in-vitro Nav 1.7 PX data) of 41 nM.

Consider `COc1cc(-c2ccc(F)c(C)c2)c(F)cc1-n1c(=O)ccc2cc(S(=O)(=O)Nc3cc(C)ncn3)ccc21` [Example 945, 1-(2,4′-difluoro-5-methoxy-3′-methyl-4-biphenylyl)-N-(6-methyl-4-pyrimidinyl)-2-oxo-1,2-dihydro-6-quinolinesulfonamide], for which the midpoint of inhibition (in-vitro Nav 1.7 PX data), the IC50, lay at 34 nM.

Where the note is “in-vitro Nav 1.7 PX data”, `COc1cc(-c2ccc(Cl)c(C)c2)ccc1-n1c(=O)ccc2cc(S(=O)(=O)Nc3ccc(F)cn3)ccc21` (atropisomer, axis not shown; (P)) [Example 689, (P)-1-(4′-chloro-3-methoxy-3′-methyl-4-biphenylyl)-N-(5-fluoro-2-pyridinyl)-2-oxo-1,2-dihydro-6-quinolinesulfonamide] showed an IC50 of 50 nM.

In turn, `COc1cc(-c2cc(Cl)cc(C#N)c2)c(F)cc1-n1c(=O)ccc2cc(S(=O)(=O)Nc3ccon3)ccc21` (atropisomer, axis not shown; (M)) [Example 519, (M)-1-(3′-chloro-5′-cyano-2-fluoro-5-methoxy-4-biphenylyl)-N-3-isoxazolyl-2-oxo-1,2-dihydro-6-quinolinesulfonamide] yielded an IC50 (in-vitro PatchXpress (PX)) of 16 nM.

For the molecule `COc1cc(-c2cc(F)cc(Cl)c2)ccc1-n1c(=O)ccc2cc(S(=O)(=O)Nc3ccon3)ccc21` (atropisomer, axis not shown; (M)) [Example 429, (M)-1-(3′-chloro-5′-fluoro-3-methoxy-4-biphenylyl)-N-3-isoxazolyl-2-oxo-1,2-dihydro-6-quinolinesulfonamide], 1590 nM corresponded to half-maximal inhibition (IC50). This counts as single-digit micromolar.

On to `O=c1ccc2cc(S(=O)(=O)Nc3ccon3)ccc2n1-c1ccc(-c2cc(F)cc(F)c2)cc1C1CC1` (atropisomer, axis not shown; (P)) [Example 629, (P)-1-(3-cyclopropyl-3′,5′-difluoro-4-biphenylyl)-N-3-isoxazolyl-2-oxo-1,2-dihydro-6-quinolinesulfonamide], for which the IC50 under setting [1] stood at 127 nM.

For `COc1cc(Cl)cc(-c2cc(OC)c(-n3c(=O)ccc4cc(S(=O)(=O)Nc5ncc(F)cn5)ccc43)cc2F)c1` [Example 929, 1-(3′-chloro-2-fluoro-5,5′-dimethoxy-4-biphenylyl)-N-(5-fluoro-2-pyrimidinyl)-2-oxo-1,2-dihydro-6-quinolinesulfonamide], under “in-vitro Nav 1.7 PX data”, inhibition was half-maximal at 23 nM (IC50).

As to `COc1cc(-c2cccc(C(F)(F)F)c2)ccc1-n1c(=O)ccc2cc(S(=O)(=O)Nc3ccc(F)cn3)ccc21` [Example 918, N-(5-fluoro-2-pyridinyl)-1-(3-methoxy-3′-(trifluoromethyl)-4-biphenylyl)-2-oxo-1,2-dihydro-6-quinolinesulfonamide], the IC50 (in-vitro Nav 1.7 PX data) came to 93 nM.

`COc1cc(F)ccc1-c1cc(OC)c(-n2c(=O)ccc3cc(S(=O)(=O)Nc4ccon4)ccc32)cc1F` [Example 741, 1-(2,4′-difluoro-2′,5-dimethoxy-4-biphenylyl)-N-3-isoxazolyl-2-oxo-1,2-dihydro-6-quinolinesulfonamide]: half-maximal inhibition (in-vitro Nav 1.7 PX data) (IC50) was put at 71 nM. The IC50 values of the last two molecules are within 1.5-fold of each other.

Under “in-vitro Nav 1.7 PX data”, `COc1cc(-c2cncc(F)c2)c(F)cc1-n1c(=O)ccc2cc(S(=O)(=O)Nc3ccon3)ccc21` [Example 730, 1-(5-fluoro-4-(5-fluoro-3-pyridinyl)-2-methoxyphenyl)-N-3-isoxazolyl-2-oxo-1,2-dihydro-6-quinolinesulfonamide] displayed an IC50 of 795 nM. This IC50 is about 11-fold higher than that of the molecule before.

Consider `COc1cc(Cl)cc(-c2ccc(-n3c(=O)ccc4cc(S(=O)(=O)Nc5ncc(F)cn5)ccc43)c(OC)c2)c1` [Example 927, 1-(3′-chloro-3,5′-dimethoxy-4-biphenylyl)-N-(5-fluoro-2-pyrimidinyl)-2-oxo-1,2-dihydro-6-quinolinesulfonamide], for which, under “in-vitro Nav 1.7 PX data”, the IC50 amounted to 15 nM. This IC50 is about 53-fold lower than that of the molecule before.

Take `COc1cc(-c2ccc(Cl)c(C#N)c2)c(F)cc1-n1c(=O)ccc2cc(S(=O)(=O)Nc3ncc(F)cn3)ccc21` [Example 893, 1-(4′-chloro-3′-cyano-2-fluoro-5-methoxy-4-biphenylyl)-N-(5-fluoro-2-pyrimidinyl)-2-oxo-1,2-dihydro-6-quinolinesulfonamide]: the IC50 (in-vitro Nav 1.7 PX data) came to 13 nM.

For the molecule `COc1ccc(-c2ccc(Cl)cc2)cc1-n1c(=O)ccc2cc(S(=O)(=O)Nc3ccon3)ccc21` [Example 857, 1-(4′-chloro-4-methoxy-3-biphenylyl)-N-3-isoxazolyl-2-oxo-1,2-dihydro-6-quinolinesulfonamide], for the setting “in-vitro Nav 1.7 PX data”, the IC50 was determined as 20 nM.

Turning to `COc1cc(-c2cc(C)ccc2F)ccc1-n1c(=O)ccc2cc(S(=O)(=O)Nc3ccon3)ccc21` [Example 1032, 1-(2′-fluoro-3-methoxy-5′-methyl-4-biphenylyl)-N-3-isoxazolyl-2-oxo-1,2-dihydro-6-quinolinesulfonamide], under setting [1], half-maximal inhibition (IC50) was put at 49 nM.

`COc1cc(-c2ccc(C)cc2Cl)ccc1-n1c(=O)ccc2cc(S(=O)(=O)Nc3ccon3)ccc21` [Example 1060, 1-(2′-chloro-3-methoxy-4′-methyl-4-biphenylyl)-N-3-isoxazolyl-2-oxo-1,2-dihydro-6-quinolinesulfonamide] had an IC50 under setting [1] of 28 nM. Compared with the last molecule, the IC50 is about 1.8-fold lower.

`COc1cc(N2CC(C(F)(F)F)C2)c(F)cc1-n1c(=O)ccc2cc(S(=O)(=O)Nc3ccon3)ccc21` [Example 530, 1-(5-fluoro-2-methoxy-4-(3-(trifluoromethyl)-1-azetidinyl)phenyl)-N-3-isoxazolyl-2-oxo-1,2-dihydro-6-quinolinesulfonamide] gave an IC50 (in-vitro PatchXpress (PX)) of 495 nM.

`COc1cc(-c2cc(C)cc(C)c2)ccc1-n1c(=O)ccc2cc(S(=O)(=O)Nc3ccon3)ccc21` [Example 1016, N-3-isoxazolyl-1-(3-methoxy-3′,5′-dimethyl-4-biphenylyl)-2-oxo-1,2-dihydro-6-quinolinesulfonamide] came in with an IC50 (in-vitro Nav 1.7 PX data) of 11 nM. This counts as double-digit nanomolar.

`COc1cc(-c2ccccc2)c(F)cc1-n1c(=O)ccc2cc(S(=O)(=O)Nc3ccon3)ccc21` [Example 701, 1-(2-fluoro-5-methoxy-4-biphenylyl)-N-3-isoxazolyl-2-oxo-1,2-dihydro-6-quinolinesulfonamide] came in with an IC50 (in-vitro Nav 1.7 PX data) of 104 nM.

As for `COc1cc(-c2cccc(C)c2)ccc1-n1c(=O)ccc2cc(S(=O)(=O)Nc3ncco3)ccc21` [Example 1113, 1-(3-methoxy-3′-methyl-4-biphenylyl)-N-1,3-oxazol-2-yl-2-oxo-1,2-dihydro-6-quinolinesulfonamide], 44 nM corresponded to half-maximal inhibition (in-vitro Nav 1.7 PX data) (IC50).

The molecule `COc1cc(-c2cccc(Cl)c2)c(Cl)cc1-n1c(=O)ccc2cc(S(=O)(=O)Nc3ccon3)ccc21` (atropisomer, axis not shown; (M)) [Example 460, (M)-1-(2,3′-dichloro-5-methoxy-[1,1′-biphenyl]-4-yl)-N-(isoxazol-3-yl)-2-oxo-1,2-dihydroquinoline-6-sulfonamide] gave an IC50 of 1760 nM.

`COc1ccc(-c2cc(F)cc(Cl)c2)cc1-n1c(=O)ccc2cc(S(=O)(=O)Nc3ccncn3)ccc21` (atropisomer, axis not shown; (M)) [Example 612, (M)-1-(3′-chloro-5′-fluoro-4-methoxy-3-biphenylyl)-2-oxo-N-4-pyrimidinyl-1,2-dihydro-6-quinolinesulfonamide]: 355 nM corresponded to half-maximal inhibition (in-vitro Nav 1.7 PX data) (IC50). In other words, the sub-micromolar range.

Consider `COc1cc(-c2ccc(Cl)c(C)c2)c(Cl)cc1-n1c(=O)ccc2cc(S(=O)(=O)Nc3ccon3)ccc21` (atropisomer, axis not shown; (M)) [Example 472, (M)-1-(2,4′-dichloro-5-methoxy-3′-methyl-[1,1′-biphenyl]-4-yl)-N-(isoxazol-3-yl)-2-oxo-1,2-dihydroquinoline-6-sulfonamide], for which the IC50 was 786 nM.

For `COc1cc(-c2ccc(C(F)(F)F)cc2)c(F)cc1-n1c(=O)ccc2cc(S(=O)(=O)Nc3ccnc(C)n3)ccc21` [Example 799, 1-(2-fluoro-5-methoxy-4′-(trifluoromethyl)-4-biphenylyl)-N-(2-methyl-4-pyrimidinyl)-2-oxo-1,2-dihydro-6-quinolinesulfonamide], for the setting “in-vitro Nav 1.7 PX data”, the IC50 was 59 nM.

For the molecule `COc1cc(-c2cccc(Cl)c2)c(C)cc1-n1c(=O)ccc2cc(S(=O)(=O)Nc3ncccn3)ccc21` (atropisomer, axis not shown; (M)) [Example 322, (M)-1-(3′-chloro-5-methoxy-2-methyl-4-biphenylyl)-2-oxo-N-2-pyrimidinyl-1,2-dihydro-6-quinolinesulfonamide], the IC50 is 3890 nM.

The molecule `COc1cc(Cl)cc(-c2cc(OC)c(-n3c(=O)ccc4cc(S(=O)(=O)Nc5cccnn5)ccc43)cc2F)c1` [Example 930, 1-(3′-chloro-2-fluoro-5,5′-dimethoxy-4-biphenylyl)-2-oxo-N-3-pyridazinyl-1,2-dihydro-6-quinolinesulfonamide] came in with an IC50 (in-vitro Nav 1.7 PX data) of 14 nM.
